Assay [1] has as its system HCV genotype 1b (Con1) replicon in HUH-7 cells. As to the kind of experiment: HCV replicon luciferase reporter assay, genotype 1b. The format is cell-based. Conditions: Hepatitis C virus, Huh-7, 72 h, HCV genotype 1b replicon luciferase assay, 3 days incubation, range class, read-out: LE_1b (EC50, range). In outline: (§1)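 Replicon inhibition for both genotypes was measured as Renilla luciferase signal (EnduRen, 7.5 μM final, 2 h) after 3-day, 37° C exposure of replicon-bearing HUH-7 cells in 4% FCS DMEM, 0.5% DMSO. The 1b construct carries S1179I; the 1a H77 construct carries P1496L and S2204I. Twenty-point, 3-fold dilutions were fitted four-parametrically for EC50, and CC50 was taken from multiplexed Cell Titer-Blue.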

Assay [2] concerns HCV genotype 1a (H77 strain) replicon in HUH-7 cells. As to the kind of experiment: HCV replicon luciferase reporter assay, genotype 1a. The format is cell-based. Conditions: Hepatitis C virus, Huh-7, 72 h, HCV genotype 1a replicon luciferase assay, 3 days incubation, range class, read-out: LE_1a (EC50, range). The procedure, abridged:
as §1

Where only a bound is given, the exact number is not on record here.

For `COc1ccc2c(O[C@@H]3C[C@H]4C(=O)N[C@]5(C(=O)NS(=O)(=O)C6(C)CC6)C[C@H]5/C=C\CC[C@H](C)C[C@@H](C)[C@H](NC(=O)OC5(C(F)(F)F)COC5)C(=O)N4C3)nc(OC)cc2c1` [Compound 1140, 3-(trifluoromethyl)oxetan-3-yl ((2R,6S,7R,9S,13aS,14aR,16aS,Z)-2-((3,6-dimethoxyisoquinolin-1-yl)oxy)-7,9-dimethyl-14a-(((1-methylcyclopropyl)sulfonyl)carbamoyl)-5,16-dioxo-1,2,3,5,6,7,8,9,10,11,13a,14,14a,15,16,16a-hexadecahydrocyclopropa[e]pyrrolo[1,2-a][1,4]diazacyclopentadecin-6-yl)carbamate], the EC50 in assay [1] and in assay [2] was < 5.46 nM throughout.

`COc1ccc2c(O[C@@H]3C[C@H]4C(=O)N[C@]5(C(=O)NS(=O)(=O)C6(C)CC6)C[C@H]5/C=C\CC[C@@H](C)C[C@@H](C)[C@H](NC(=O)OC5(C(F)(F)F)COC5)C(=O)N4C3)nc(OC)cc2c1` [Compound 1141, 3-(trifluoromethyl)oxetan-3-yl ((2R,6S,7R,9R,13aS,14aR,16aS,Z)-2-((3,6-dimethoxyisoquinolin-1-yl)oxy)-7,9-dimethyl-14a-(((1-methylcyclopropyl)sulfonyl)carbamoyl)-5,16-dioxo-1,2,3,5,6,7,8,9,10,11,13a,14,14a,15,16,16a-hexadecahydrocyclopropa[e]pyrrolo[1,2-a][1,4]diazacyclopentadecin-6-yl)carbamate]: the EC50 in assay [1] and in assay [2] was < 5.46 nM each time.

With `COc1ccc2c(O[C@@H]3C[C@H]4C(=O)N[C@]5(C(=O)NS(=O)(=O)C6(CF)CC6)C[C@H]5/C=C\CC[C@@H](C)C[C@@H](C)[C@H](NC(=O)OC(C)(C)C(C)(F)F)C(=O)N4C3)nccc2c1` [Compound 1143, 3,3-difluoro-2-methylbutan-2-yl((2R,6S,7R,9R,13aS,14aR,16aS,Z)-14a-(((1-(fluoromethyl)cyclopropyl)sulfonyl)carbamoyl)-2-((6-methoxyisoquinolin-1-yl)oxy)-7,9-dimethyl-5,16-dioxo-1,2,3,5,6,7,8,9,10,11,13a,14,14a,15,16,16a-hexadecahydrocyclopropa[e]pyrrolo[1,2-a][1,4]diazacyclopentadecin-6-yl)carbamate], the EC50 in assay [1] was < 5.46 nM; in assay [2], 4.82 to 103 nM.

Consider `COCCOc1cnc(O[C@@H]2C[C@H]3C(=O)N[C@]4(C(=O)NS(=O)(=O)C5(C)CC5)C[C@H]4/C=C\CC[C@H](C)C[C@@H](C)[C@H](NC(=O)OC(C)(C)C(F)(F)F)C(=O)N3C2)c2ccc(OC)cc12` [Compound 1144, 1,1,1-trifluoro-2-methylpropan-2-yl((2R,6S,7R,9S,13aS,14aR,16aS,Z)-2-((6-methoxy-4-(2-methoxyethoxyl)isoquinolin-1-yl)oxy)-7,9-dimethyl-14a-(((1-methylcyclopropyl)sulfonyl)carbamoyl)-5,16-dioxo-1,2,3,5,6,7,8,9,10,11,13a,14,14a,15,16,16a-hexadecahydrocyclopropa[e]pyrrolo[1,2-a][1,4]diazacyclopentadecin-6-yl)carbamate], for which the EC50 in assay [1] and in assay [2] was < 5.46 nM throughout.

For `COCCOc1cnc(O[C@@H]2C[C@H]3C(=O)N[C@]4(C(=O)NS(=O)(=O)C5(C)CC5)C[C@H]4/C=C\CC[C@@H](C)C[C@@H](C)[C@H](NC(=O)OC(C)(C)C(F)(F)F)C(=O)N3C2)c2ccc(OC)cc12` [Compound 1145, 1,1,1-trifluoro-2-methylpropan-2-yl((2R,6S,7R,9R,13aS,14aR,16aS,Z)-2-((6-methoxy-4-(2-methoxyethoxyl)isoquinolin-1-yl)oxy)-7,9-dimethyl-14a-(((1-methylcyclopropyl)sulfonyl)carbamoyl)-5,16-dioxo-1,2,3,5,6,7,8,9,10,11,13a,14,14a,15,16,16a-hexadecahydrocyclopropa[e]pyrrolo[1,2-a][1,4]diazacyclopentadecin-6-yl)carbamate], the EC50 in assay [1] and in assay [2] was < 5.46 nM in each case.

In the case of `COCCOc1cnc(O[C@@H]2C[C@H]3C(=O)N[C@]4(C(=O)NS(=O)(=O)C5CC5)C[C@H]4/C=C\CC[C@H](C)C[C@@H](C)[C@H](NC(=O)OC(C)(C)C(F)(F)F)C(=O)N3C2)c2ccc(OC)cc12` [Compound 1146, 1,1,1-trifluoro-2-methylpropan-2-yl((2R,6S,7R,9S,13aS,14aR,16aS,Z)-14a-((cyclopropylsulfonyl)carbamoyl)-2-((6-methoxy-4-(2-methoxyethoxyl)isoquinolin-1-yl)oxy)-7,9-dimethyl-5,16-dioxo-1,2,3,5,6,7,8,9,10,11,13a,14,14a,15,16,16a-hexadecahydrocyclopropa[e]pyrrolo[1,2-a][1,4]diazacyclopentadecin-6-yl)carbamate], the EC50 in assay [1] and in assay [2] was < 5.46 nM throughout.

Take `COCCOc1cnc(O[C@@H]2C[C@H]3C(=O)N[C@]4(C(=O)NS(=O)(=O)C5CC5)C[C@H]4/C=C\CC[C@@H](C)C[C@@H](C)[C@H](NC(=O)OC(C)(C)C(F)(F)F)C(=O)N3C2)c2ccc(OC)cc12` [Compound 1147, 1,1,1-trifluoro-2-methylpropan-2-yl((2R,6S,7R,9R,13aS,14aR,16aS,Z)-14a-((cyclopropylsulfonyl)carbamoyl)-2-((6-methoxy-4-(2-methoxyethoxyl)isoquinolin-1-yl)oxy)-7,9-dimethyl-5,16-dioxo-1,2,3,5,6,7,8,9,10,11,13a,14,14a,15,16,16a-hexadecahydrocyclopropa[e]pyrrolo[1,2-a][1,4]diazacyclopentadecin-6-yl)carbamate]: the EC50 in assay [1] and in assay [2] was < 5.46 nM each time.

For `COCCOc1cnc(O[C@@H]2C[C@H]3C(=O)N[C@]4(C(=O)NS(=O)(=O)C5(C)CC5)C[C@H]4/C=C\CC[C@H](C)C[C@@H](C)[C@H](NC(=O)OC(C)(C)C(C)(F)F)C(=O)N3C2)c2ccc(OC)cc12` [Compound 1148, 3,3-difluoro-2-methylbutan-2-yl((2R,6S,7R,9S,13aS,14aR,16aS,Z)-2-((6-methoxy-4-(2-methoxyethoxyl)isoquinolin-1-yl)oxy)-7,9-dimethyl-14a-(((1-methylcyclopropyl)sulfonyl)carbamoyl)-5,16-dioxo-1,2,3,5,6,7,8,9,10,11,13a,14,14a,15,16,16a-hexadecahydrocyclopropa[e]pyrrolo[1,2-a][1,4]diazacyclopentadecin-6-yl)carbamate], the EC50 in assay [1] and in assay [2] was < 5.46 nM each time.

Consider `COCCOc1cnc(O[C@@H]2C[C@H]3C(=O)N[C@]4(C(=O)NS(=O)(=O)C5(C)CC5)C[C@H]4/C=C\CC[C@@H](C)C[C@@H](C)[C@H](NC(=O)OC(C)(C)C(C)(F)F)C(=O)N3C2)c2ccc(OC)cc12` [Compound 1149, 3,3-difluoro-2-methylbutan-2-yl((2R,6S,7R,9R,13aS,14aR,16aS,Z)-2-((6-methoxy-4-(2-methoxyethoxyl)isoquinolin-1-yl)oxy)-7,9-dimethyl-14a-(((1-methylcyclopropyl)sulfonyl)carbamoyl)-5,16-dioxo-1,2,3,5,6,7,8,9,10,11,13a,14,14a,15,16,16a-hexadecahydrocyclopropa[e]pyrrolo[1,2-a][1,4]diazacyclopentadecin-6-yl)carbamate], for which the EC50 in assay [1] and in assay [2] was < 5.46 nM in each case.

Consider `COCCOc1cnc(O[C@@H]2C[C@H]3C(=O)N[C@]4(C(=O)NS(=O)(=O)C5CC5)C[C@H]4/C=C\CC[C@H](C)C[C@@H](C)[C@H](NC(=O)OC(C)(C)C(C)(F)F)C(=O)N3C2)c2ccc(OC)cc12` [Compound 1150, 3,3-difluoro-2-methylbutan-2-yl((2R,6S,7R,9S,13aS,14aR,16aS,Z)-14a-((cyclopropylsulfonyl)carbamoyl)-2-((6-methoxy-4-(2-methoxyethoxyl)isoquinolin-1-yl)oxy)-7,9-dimethyl-5,16-dioxo-1,2,3,5,6,7,8,9,10,11,13a,14,14a,15,16,16a-hexadecahydrocyclopropa[e]pyrrolo[1,2-a][1,4]diazacyclopentadecin-6-yl)carbamate], for which the EC50 in assay [1] and in assay [2] was < 5.46 nM each time.

Consider `COCCOc1cnc(O[C@@H]2C[C@H]3C(=O)N[C@]4(C(=O)NS(=O)(=O)C5CC5)C[C@H]4/C=C\CC[C@@H](C)C[C@@H](C)[C@H](NC(=O)OC(C)(C)C(C)(F)F)C(=O)N3C2)c2ccc(OC)cc12` [Compound 1151, 3,3-difluoro-2-methylbutan-2-yl((2R,6S,7R,9R,13aS,14aR,16aS,Z)-14a-((cyclopropylsulfonyl)carbamoyl)-2-((6-methoxy-4-(2-methoxyethoxyl)isoquinolin-1-yl)oxy)-7,9-dimethyl-5,16-dioxo-1,2,3,5,6,7,8,9,10,11,13a,14,14a,15,16,16a-hexadecahydrocyclopropa[e]pyrrolo[1,2-a][1,4]diazacyclopentadecin-6-yl)carbamate], for which the EC50 in assay [1] and in assay [2] was < 5.46 nM throughout.

On to `COCCOc1cnc(O[C@@H]2C[C@H]3C(=O)N[C@]4(C(=O)NS(=O)(=O)C5(C)CC5)C[C@H]4/C=C\CC[C@H](C)C[C@@H](C)[C@H](NC(=O)OC(C)(C)C)C(=O)N3C2)c2ccc(OC)cc12` [Compound 1152, tert-butyl ((2R,6S,7R,9S,13aS,14aR,16aS,Z)-2-((6-methoxy-4-(2-methoxyethoxyl)isoquinolin-1-yl)oxy)-7,9-dimethyl-14a-(((1-methylcyclopropyl)sulfonyl)carbamoyl)-5,16-dioxo-1,2,3,5,6,7,8,9,10,11,13a,14,14a,15,16,16a-hexadecahydrocyclopropa[e]pyrrolo[1,2-a][1,4]diazacyclopentadecin-6-yl)carbamate], for which the EC50 in assay [1] and in assay [2] was < 5.46 nM each time.

The record behind these values is patent publication US9499550B2 (BRISTOL-MYERS SQUIBB COMPANY, priority 2012, dated 2016).
